The values below come from PubChem BioAssay (NCI).

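Interpolation was linear, between the two tested concentrations surrounding the appropriate level; five concentrations were tested over 48 hours in 96-well plates. GI50 is the concentration that inhibits growth by half. TGI is the concentration that stops growth completely.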 A value given as a limit tells only on which side of the number the result lay.

Some test systems named below: SF-295 CNS; NCI-H226 lung; MOLT-4 leukemia; RPMI-8226 leukemia; M14 melanoma; TK-10 renal; CAKI-1 renal; PC-3 prostate; MCF7 breast.
Holding throughout (test): inhibition of tumour cell growth, NCI panel, 48 h

For `C=CC(=O)NCCSCCCOC1(C(=O)O)CC(O)C(NC(C)=O)C(C(O)C(O)CO)O1` (configuration not stated), the TGI in the test on SF-295 CNS, with NCI-H226 lung, in the test on MOLT-4 leukemia, in the test on RPMI-8226 leukemia, in the test with M14 melanoma and with TK-10 renal was more than 100 µM throughout.

Consider `O=[N+]([O-])c1ccc(C2CC(c3ccccc3Cl)=Nc3ccccc3S2)cc1` (configuration not stated), for which the TGI was 38.5 µM with SF-295 CNS; 27.9 µM with NCI-H226 lung; 5.37 µM in the test with MOLT-4 leukemia; 5.14 µM in the test with RPMI-8226 leukemia; more than 73.5 µM in the test on CAKI-1 renal; 29.4 µM in the test on M14 melanoma. In the test with TK-10 renal, this molecule displayed a TGI of more than 79.1 µM.

In the case of `O=C(/C=C/c1ccco1)c1cc(F)c(Cl)cc1Cl`, the GI50 in the test on SF-295 CNS was 24.3 µM; in the test on NCI-H226 lung it was 19.9 µM; with RPMI-8226 leukemia, 13.8 µM; in the test on CAKI-1 renal, 32.7 µM; in the test on PC-3 prostate it was 24.8 µM; in the test on M14 melanoma, 19.5 µM. Moreover, the GI50 in the test on TK-10 renal was 28.4 µM; in the test with MCF7 breast, 14.1 µM. Moreover, the TGI in the test with SF-295 CNS was 65.9 µM; in the test on NCI-H226 lung, 47.2 µM; in the test on RPMI-8226 leukemia it was 39.9 µM; in the test on CAKI-1 renal, more than 100 µM; in the test on PC-3 prostate, 80.1 µM; in the test on M14 melanoma it was 38.4 µM. The TGI in the test with TK-10 renal was determined as 90.1 µM; in the test on MCF7 breast it was 63 µM.

As to `Nc1c(-c2cn(Cc3ccccc3)c3ccccc23)[n+]([O-])c2ccccc2[n+]1[O-]`, the TGI is 88.7 µM with SF-295 CNS; 36.5 µM with NCI-H226 lung; 92.3 µM in the test with MOLT-4 leukemia; more than 100 µM in the test on RPMI-8226 leukemia; 68 µM in the test with CAKI-1 renal; 74.3 µM in the test on M14 melanoma. This molecule gave a TGI with TK-10 renal of more than 100 µM.

Turning to `COc1ccc(OC(C)=O)c2c1CCC=CC2=O`, the TGI amounted to 35.4 µM in the test with SF-295 CNS; 33.7 µM with NCI-H226 lung; 33.1 µM with MOLT-4 leukemia; 3.96 µM in the test with RPMI-8226 leukemia; 19.7 µM with M14 melanoma; 32.2 µM in the test with TK-10 renal.

As to `CC(=O)Nc1ccc(/C=c2\sc3nnc(CCC(=O)Nc4ccccc4Cl)n3c2=O)cc1`, the TGI in the test on SF-295 CNS is 38.9 µM; in the test with NCI-H226 lung, 52.7 µM; in the test with MOLT-4 leukemia, 44.7 µM; with RPMI-8226 leukemia, 45.2 µM; with CAKI-1 renal it was more than 100 µM; in the test on M14 melanoma, 35.8 µM. The same molecule displayed a TGI with TK-10 renal of more than 100 µM.

`C#CCNC(=O)N(CC#C)N=O`: the TGI with SF-295 CNS, with NCI-H226 lung, in the test with MOLT-4 leukemia, with CAKI-1 renal, in the test with M14 melanoma and in the test with TK-10 renal was more than 100 µM throughout.

Turning to `COc1ccc(C(CCC(C)=O)C(=O)O)cc1OC` (configuration not stated), the TGI in the test with SF-295 CNS, in the test on RPMI-8226 leukemia, in the test with CAKI-1 renal and in the test on TK-10 renal was more than 100 µM each time.

As for `CCN(CC)CC(C)(C)C(=O)/C=C/c1cccc(/C=C/C(=O)C(C)(C)CN(CC)CC)c1`, the TGI was 3.28 µM with SF-295 CNS; 3.38 µM with NCI-H226 lung; 0.901 µM with MOLT-4 leukemia; more than 100 µM in the test on RPMI-8226 leukemia; 0.965 µM in the test on CAKI-1 renal; 2.82 µM with M14 melanoma. In addition, the TGI in the test with TK-10 renal stood at 2.35 µM.

With `C=C=C(C(=O)OC)S(=O)c1ccccc1[N+](=O)[O-]` (configuration not stated), the TGI in the test on SF-295 CNS, in the test with NCI-H226 lung, with MOLT-4 leukemia, in the test with RPMI-8226 leukemia, with CAKI-1 renal and with M14 melanoma was more than 100 µM each time. In the test with TK-10 renal, this molecule returned a TGI of more than 100 µM.

As to `CC(=O)Nc1ccccc1-c1nc2ccccc2nc1C`, the TGI in the test with SF-295 CNS, in the test with NCI-H226 lung, in the test with MOLT-4 leukemia, in the test with RPMI-8226 leukemia, in the test on CAKI-1 renal and in the test on M14 melanoma was more than 100 µM in each case. In the test on TK-10 renal, this molecule displayed a TGI of more than 100 µM.

Consider `COC1OC(CO)C(O)C(OC(C)=O)C1NC(=O)N(CCCl)N=O` (configuration not stated), for which the TGI with SF-295 CNS, in the test on NCI-H226 lung, with MOLT-4 leukemia, in the test on CAKI-1 renal, in the test with M14 melanoma and in the test with TK-10 renal was more than 100 µM in each case.

As for `COc1ccccc1NC(=O)C1=C(C)NC(C)=C(C(=O)Nc2ccccc2OC)C1C1=CC=COC1`, the TGI was 40.7 µM in the test on SF-295 CNS; more than 100 µM in the test on NCI-H226 lung; more than 100 µM in the test with MOLT-4 leukemia; 50.1 µM in the test with RPMI-8226 leukemia; 56.8 µM in the test with CAKI-1 renal; 22.5 µM in the test on M14 melanoma. For the same molecule, the TGI with TK-10 renal came out at 61.6 µM.

Consider `Cc1ccc(S(=O)(=O)c2ccc(NC(=O)SCCC(=O)O)cc2)cc1`, for which the TGI in the test with SF-295 CNS, with NCI-H226 lung, with MOLT-4 leukemia, in the test on RPMI-8226 leukemia, in the test with CAKI-1 renal and with M14 melanoma was more than 100 µM in each case. In the test on TK-10 renal, this molecule had a TGI of more than 100 µM.

For `CC1=C(O)c2cn(C)cc2C(=O)C1=O`, the TGI with SF-295 CNS, in the test with NCI-H226 lung, in the test with MOLT-4 leukemia, in the test on RPMI-8226 leukemia, in the test on CAKI-1 renal and in the test on M14 melanoma was more than 100 µM each time. The molecule also registered a TGI in the test on TK-10 renal of more than 100 µM.

As for `O=C1CC(c2c(-c3ccccc3)[nH]c3ccccc23)C(=O)N1` (configuration not stated), the TGI with SF-295 CNS, in the test on NCI-H226 lung, with MOLT-4 leukemia, in the test with RPMI-8226 leukemia, with CAKI-1 renal and in the test with M14 melanoma was more than 100 µM throughout. For the same molecule, the TGI with TK-10 renal was more than 100 µM.

Take `Cc1ccc(Cl)cc1Nc1nc(C(F)(F)F)ccc1C(=O)N/N=C/c1cccnc1`: the GI50 was 1.38 µM in the test on SF-295 CNS; 2.38 µM with NCI-H226 lung; 1.42 µM in the test on MOLT-4 leukemia; 2.94 µM with RPMI-8226 leukemia; 2.14 µM with CAKI-1 renal; 1.99 µM in the test with PC-3 prostate. In addition, the GI50 in the test on M14 melanoma is 1.44 µM; in the test with TK-10 renal, 1.32 µM; with MCF7 breast, 2.45 µM. Besides, the TGI is 4.51 µM with SF-295 CNS; 12.4 µM in the test on NCI-H226 lung; 10.7 µM in the test on MOLT-4 leukemia; more than 32.5 µM in the test on RPMI-8226 leukemia; 9.02 µM in the test with CAKI-1 renal; 18.7 µM in the test with PC-3 prostate. Besides, the TGI came out at 3.92 µM in the test on M14 melanoma, 8.89 µM in the test on TK-10 renal and 13.9 µM with MCF7 breast.
